Measurements as given in patent US20160046620A1, “METHODS OF CONTROLLING NEONICOTINOID RESISTANT PESTS” (SYNGENTA PARTICIPATIONS AG, priority 2013, published 2016).

Tested on: Orius laevigatus
Test: Safety to beneficial species: test on Orius laevigatus on treated french bean leaf discs
Assay type: in vivo
Conditions: Orius laevigatus adults; for Corrected Mortality (%) 2 DAI: 2 days after infestation; for Corrected Mortality (%) 4 DAI: 4 days after infestation
Experimental: Phaseolus vulgaris var. Fulvio (french bean) plants were reduced to one leaf. With the leaves held in a horizontal position, a track sprayer was used to treat the plants at a rate corresponding to […]. Once dry, leaf discs were collected from the plants and placed treated side up in petri dishes containing 1% water agar.
A paper triangle was added for shelter, and a suitable amount of Ephestia eggs were added as a food supply. Five (5) Orius laevigatus (predatory bug, Syngenta Bioline) adults were added and the dishes closed with a cotton filter and perforated plastic lid. The dishes were incubated in a climate chamber at 25° C., 75% relative humidity, 16:8 h light/dark regime.
Six replicates were provided for each treatment and concentration level. The number of living and dead Orius laevigatus were counted two and four days after infestation (DAI). At the day two evaluation the food supply was replenished.

| SMILES | Corrected Mortality (%) 2 DAI (50 ppm) | Corrected Mortality (%) 4 DAI (50 ppm) | Corrected Mortality (%) 2 DAI (100 ppm) | Corrected Mortality (%) 4 DAI (100 ppm) | Corrected Mortality (%) 2 DAI (200 ppm) | Corrected Mortality (%) 4 DAI (200 ppm) |
| --- | --- | --- | --- | --- | --- | --- |
| C#CCN1[C@@H]2CC[C@H]1C[C@](C#N)(c1cncc(C#N)c1)C2 [Compound 1.074, (1S,3S,5R)-3-(5-cyano-pyridin-3-yl)-8-prop-2-ynyl-8-aza-bicyclo[3.2.1]octane-3-carbonitrile] | 4% | 4% | 0% | 0% | 7% | 39% |
| O=[N+]([O-])NC1=NCCN1Cc1ccc(Cl)nc1 [Imidacloprid, reference compound] | 11% | 30% | 43% | 65% | 75% | 100% |
| N#Cc1cncc([C@]2(C#N)C[C@H]3CC[C@@H](C2)N3CC(F)(F)F)c1 [Compound 1.085] | 0% | 9% | 0% | 9% | 0% | 22% |
